The record followed here is US10072001B2, “Tank-binding kinase inhibitor compounds” (Gilead Sciences, Inc., priority 2014, dated 2018).

One experiment has as its target IKKε (Homo sapiens (Human), UniProt Q14164). In words: TR-FRET kinase assay, IKKε. To be noted: full length recombinant IKKε 0.3 nM, 2x Km ATP, 1 μM peptide, 240 min at 25° C.; geometric mean of minimum four determinations. In kind it is biochemical. The text has this: Biological Assay for TBK1 and IKKs:
A general note: Time-resolved FRET reads energy transfer from a long-lived donor to a nearby acceptor.

A further experiment has as its target TBK1 (Homo sapiens (Human), UniProt Q9UHD2). In words: TR-FRET kinase assay, TBK1. To be noted: read-out: TBK1-IC50; full length recombinant TBK1 2.5 nM, 2x Km ATP, 1 μM peptide, 240 min at 25° C.; geometric mean of minimum four determinations.

TBK1, sequence (Q9UHD2 whole entry): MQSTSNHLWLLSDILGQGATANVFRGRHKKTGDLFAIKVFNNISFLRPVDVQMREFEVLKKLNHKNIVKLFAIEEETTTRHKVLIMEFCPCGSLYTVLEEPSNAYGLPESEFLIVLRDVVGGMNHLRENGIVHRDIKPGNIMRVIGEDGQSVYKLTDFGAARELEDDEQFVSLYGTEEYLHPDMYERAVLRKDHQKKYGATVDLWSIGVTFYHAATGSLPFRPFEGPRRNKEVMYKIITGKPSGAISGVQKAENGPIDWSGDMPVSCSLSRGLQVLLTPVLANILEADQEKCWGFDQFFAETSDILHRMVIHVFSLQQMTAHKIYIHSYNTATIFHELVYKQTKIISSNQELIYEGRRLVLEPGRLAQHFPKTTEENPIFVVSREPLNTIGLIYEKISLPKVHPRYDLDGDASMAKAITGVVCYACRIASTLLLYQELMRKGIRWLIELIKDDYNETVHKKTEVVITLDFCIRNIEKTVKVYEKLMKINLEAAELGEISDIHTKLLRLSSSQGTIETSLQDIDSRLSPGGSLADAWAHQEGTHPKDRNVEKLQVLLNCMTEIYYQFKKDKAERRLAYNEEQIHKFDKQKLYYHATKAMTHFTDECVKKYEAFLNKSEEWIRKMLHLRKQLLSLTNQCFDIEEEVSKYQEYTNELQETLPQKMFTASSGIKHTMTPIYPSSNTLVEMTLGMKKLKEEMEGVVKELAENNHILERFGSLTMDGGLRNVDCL
IKKε, sequence (Q14164 whole entry): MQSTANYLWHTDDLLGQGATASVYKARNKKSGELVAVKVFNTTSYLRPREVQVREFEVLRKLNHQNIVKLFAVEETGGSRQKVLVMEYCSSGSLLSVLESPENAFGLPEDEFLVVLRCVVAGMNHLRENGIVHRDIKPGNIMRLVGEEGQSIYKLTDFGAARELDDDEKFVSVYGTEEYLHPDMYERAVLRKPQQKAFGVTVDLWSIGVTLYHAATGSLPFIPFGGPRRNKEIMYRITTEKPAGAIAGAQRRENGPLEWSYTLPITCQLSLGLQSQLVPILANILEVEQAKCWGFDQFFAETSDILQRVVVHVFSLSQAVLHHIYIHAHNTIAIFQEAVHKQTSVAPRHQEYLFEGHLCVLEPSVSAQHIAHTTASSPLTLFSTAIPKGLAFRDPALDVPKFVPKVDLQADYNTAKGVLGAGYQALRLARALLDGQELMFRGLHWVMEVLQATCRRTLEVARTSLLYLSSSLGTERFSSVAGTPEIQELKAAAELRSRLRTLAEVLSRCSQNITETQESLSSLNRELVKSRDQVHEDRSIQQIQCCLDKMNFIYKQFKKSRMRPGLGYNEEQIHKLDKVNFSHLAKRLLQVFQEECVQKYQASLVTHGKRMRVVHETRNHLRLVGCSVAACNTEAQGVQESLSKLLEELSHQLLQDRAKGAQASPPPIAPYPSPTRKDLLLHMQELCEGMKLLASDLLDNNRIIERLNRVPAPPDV

One may read the IC50 as the concentration that inhibits the measured activity by half. With `CC(C)NC(=O)c1cc2c(-c3ccc(OC4CCOCC4)c(C#N)c3)ccnc2[nH]1` [Example 60, 4-(3-cyano-4-((tetrahydro-2H-pyran-4-yl)oxy)phenyl)-N-isopropyl-1H-pyrrolo[2,3-b]pyridine-2-carboxamide], the figures for the half-inhibitory concentration (IC50) on IKKε and at TBK1 were 44.5 nM and 63.8 nM, respectively.
In the case of `COc1cc(C#N)cc(-c2ccnc3[nH]c(-c4ccc(N5CCOCC5)cc4)cc23)c1` [Example 33, 3-methoxy-5-(2-(4-morpholinophenyl)-1H-pyrrolo[2,3-b]pyridin-4-yl)benzonitrile], the values for the IC50 at IKKε and on TBK1 were more than 1000 nM and 14.5 nM, respectively.
For the compound `N#Cc1cc(-c2ncnc3[nH]c(Nc4cccc(N5CCOCC5)c4)nc23)ccc1OC1CCOCC1` [Example 194, 5-(8-((3-morpholinophenyl)amino)-9H-purin-6-yl)-2-((tetrahydro-2H-pyran-4-yl)oxy)benzonitrile], the half-inhibitory concentration (IC50) on IKKε was 564 nM; on TBK1 it was 298 nM.
Consider `N#Cc1cc(-c2ccnc3[nH]c(-c4cnn(C5CNC5)c4)cc23)ccc1OC1CCOCC1` [Example 9, 5-(2-(1-(azetidin-3-yl)-1H-pyrazol-4-yl)-1H-pyrrolo[2,3-b]pyridin-4-yl)-2-((tetrahydro-2H-pyran-4-yl)oxy)benzonitrile], for which the concentration for half-maximal inhibition (IC50) on IKKε was 1.41 nM; on TBK1, 2.38 nM.
`Cn1cc(-c2nc3c(-c4ccc(OC5CCOCC5)c(C#N)c4)ncnc3[nH]2)cn1` [Example 213, 5-(8-(1-methyl-1H-pyrazol-4-yl)-9H-purin-6-yl)-2-((tetrahydro-2H-pyran-4-yl)oxy)benzonitrile]: the IC50 at IKKε was found to be 30.2 nM; on TBK1 it was 12.4 nM.
In the case of `C=C(C)c1ccc(-c2cc3c(-c4ccc(O[C@@H]5CCN(C(=O)CO)C5)c(C#N)c4)ccnc3[nH]2)cc1` [Example 150, (R)-2-((1-(2-hydroxyacetyl)pyrrolidin-3-yl)oxy)-5-(2-(4-(prop-1-en-2-yl)phenyl)-1H-pyrrolo[2,3-b]pyridin-4-yl)benzonitrile], the IC50 on IKKε was determined as 18.4 nM; at TBK1, 11.2 nM.
`N#Cc1cc(-c2ncnc3[nH]c(-c4cccc(N5CCOCC5)c4)cc23)ccc1OC1CCOCC1` [Example 103, 5-(6-(3-morpholinophenyl)-7H-pyrrolo[2,3-d]pyrimidin-4-yl)-2-((tetrahydro-2H-pyran-4-yl)oxy)benzonitrile]: the figures for the half-inhibitory concentration (IC50) on IKKε and at TBK1 were 18.9 nM and 2.63 nM, respectively.
Regarding `N#Cc1cc(-c2ncnc3[nH]c(-c4cnc5c(c4)NCCO5)cc23)ccc1OC1CCOCC1` [Example 189, 5-(6-(2,3-dihydro-1H-pyrido[2,3-b][1,4]oxazin-7-yl)-7H-pyrrolo[2,3-d]pyrimidin-4-yl)-2-((tetrahydro-2H-pyran-4-yl)oxy)benzonitrile], the values for the 50% inhibitory concentration (IC50) at IKKε and on TBK1 were 7.99 nM and 4.36 nM, respectively.
On to `N#Cc1cc(-c2ncnc3[nH]c(-c4ccc(C(=O)N5CCOCC5)cc4)cc23)ccc1OC1CCOCC1` [Example 186, 5-(6-(4-(morpholine-4-carbonyl)phenyl)-7H-pyrrolo[2,3-d]pyrimidin-4-yl)-2-((tetrahydro-2H-pyran-4-yl)oxy)benzonitrile], for which the IC50 on IKKε amounted to 4.96 nM; on TBK1 it was 1.62 nM.
`N#Cc1cc(-c2ccnc3[nH]c(-c4ccc(N5CCOCC5)cc4)cc23)ccc1O[C@@H]1CCNC1` [Example 14, (R)-5-(2-(4-morpholinophenyl)-1H-pyrrolo[2,3-b]pyridin-4-yl)-2-(pyrrolidin-3-yloxy)benzonitrile]: the IC50 worked out at 20.8 nM on IKKε and 6.86 nM at TBK1.
Regarding `COc1ccc(-c2ccnc3[nH]c(-c4ccc(N5CCOCC5)cc4)cc23)cc1C#N` [Example 34, 2-methoxy-5-(2-(4-morpholinophenyl)-1H-pyrrolo[2,3-b]pyridin-4-yl)benzonitrile], the IC50 is more than 1000 nM on IKKε and 89.8 nM on TBK1.
Regarding `COc1cc(-c2cc3c(-c4ccc(OC5CCN(C(=O)CO)CC5)c(C#N)c4)ncnc3[nH]2)ccc1N1CCOCC1` [Example 125, 2-((1-(2-hydroxyacetyl)piperidin-4-yl)oxy)-5-(6-(3-methoxy-4-morpholinophenyl)-7H-pyrrolo[2,3-d]pyrimidin-4-yl)benzonitrile], the IC50 is 2.62 nM on IKKε and 0.9 nM at TBK1.
With `COc1ccc(-c2nc3c(-c4ccc(OC5CCOCC5)c(C#N)c4)ncnc3[nH]2)cc1` [Example 146, 5-(8-(4-methoxyphenyl)-9H-purin-6-yl)-2-((tetrahydro-2H-pyran-4-yl)oxy)benzonitrile], the results for the 50% inhibitory concentration (IC50) on IKKε and at TBK1 were 23.4 nM and 4.71 nM, respectively.
Turning to `N#Cc1cc(-c2ccnc3[nH]c(-c4ccc(N5CCOCC5)cc4)cc23)ccc1OC1CCN(C(=O)CN)CC1` [Example 152, 2-((1-(2-aminoacetyl)piperidin-4-yl)oxy)-5-(2-(4-morpholinophenyl)-1H-pyrrolo[2,3-b]pyridin-4-yl)benzonitrile], the figures for the concentration for half-maximal inhibition (IC50) on IKKε and on TBK1 were 18.4 nM and 5.96 nM, respectively.
The corresponding values for `N#Cc1cc(-c2ccnc3[nH]c(C4=CCNCC4)cc23)ccc1OC1CCOCC1` [Example 5, 2-((tetrahydro-2H-pyran-4-yl)oxy)-5-(2-(1,2,3,6-tetrahydropyridin-4-yl)-1H-pyrrolo[2,3-b]pyridin-4-yl)benzonitrile] are 39.7 nM and 29.8 nM.
Consider `CC(C)(O)c1cccc(-c2cc3c(-c4ccc(OC5CCOCC5)c(C#N)c4)ccnc3[nH]2)c1` [Example 68, 5-(2-(3-(2-hydroxypropan-2-yl)phenyl)-1H-pyrrolo[2,3-b]pyridin-4-yl)-2-((tetrahydro-2H-pyran-4-yl)oxy)benzonitrile], for which the concentration for half-maximal inhibition (IC50) was 22.5 nM at IKKε and 10.6 nM on TBK1.
On to `N#Cc1cc(-c2ncnc3[nH]c(-c4ccc(N5CCOCC5)cc4)cc23)ccc1CN1CCCC1=O` [Example 115, 5-(6-(4-morpholinophenyl)-7H-pyrrolo[2,3-d]pyrimidin-4-yl)-2-((2-oxopyrrolidin-1-yl)methyl)benzonitrile], for which the figures for the IC50 at IKKε and on TBK1 were 1000 nM and 45.7 nM, respectively.
As to `N#Cc1cc(-c2ccnc3[nH]c(-c4ccc5c(c4)C(=O)NC5)cc23)ccc1OC1CCOCC1` [Example 74, 5-(2-(3-oxoisoindolin-5-yl)-1H-pyrrolo[2,3-b]pyridin-4-yl)-2-((tetrahydro-2H-pyran-4-yl)oxy)benzonitrile], the IC50 at IKKε is more than 1000 nM; on TBK1 it was 9.62 nM.
On to `Cc1ncc(-c2cc3c(-c4ccc(OC5CCOCC5)c(C#N)c4)ncnc3[nH]2)s1` [Example 190, 5-(6-(2-methylthiazol-5-yl)-7H-pyrrolo[2,3-d]pyrimidin-4-yl)-2-((tetrahydro-2H-pyran-4-yl)oxy)benzonitrile], for which the results for the 50% inhibitory concentration (IC50) at IKKε and at TBK1 were 14.1 nM and 7.91 nM, respectively.
The corresponding values for `CN1CCN(c2ccc(-c3cc4c(-c5ccc(OC6CCOCC6)c(C#N)c5)ccnc4[nH]3)cc2)CC1` [Example 82, 5-(2-(4-(4-methylpiperazin-1-yl)phenyl)-1H-pyrrolo[2,3-b]pyridin-4-yl)-2-((tetrahydro-2H-pyran-4-yl)oxy)benzonitrile] are 0.29 nM and 0.9 nM.
`C[C@@H](O)C(=O)N1CC[C@@H](Oc2ccc(-c3ncnc4[nH]c(-c5ccc(N6CCOCC6)cc5)nc34)cc2C#N)C1` [Example 209, 2-(((R)-1-((R)-2-hydroxypropanoyl)pyrrolidin-3-yl)oxy)-5-(8-(4-morpholinophenyl)-9H-purin-6-yl)benzonitrile]: the figures for the half-maximal inhibitory concentration (IC50) on IKKε and on TBK1 were 58.7 nM and 13.1 nM, respectively.
For the compound `Cn1cc(-c2cc3c(-c4ccc(OC5CCOCC5)c(C#N)c4)ccnc3[nH]2)cn1` [Example 84, 5-(2-(1-methyl-1H-pyrazol-4-yl)-1H-pyrrolo[2,3-b]pyridin-4-yl)-2-((tetrahydro-2H-pyran-4-yl)oxy)benzonitrile], the IC50 stood at 4.71 nM on IKKε and 3.68 nM at TBK1.
For `N#Cc1cc(-c2ncnc3[nH]c(-c4ccc(N5CCOCC5)cc4)cc23)ccc1CN1CCOCC1` [Example 112, 2-(morpholinomethyl)-5-(6-(4-morpholinophenyl)-7H-pyrrolo[2,3-d]pyrimidin-4-yl)benzonitrile] the same measures were 85 nM and 19.6 nM.
For `N#Cc1cc(-c2ncnc3[nH]c(-c4ccc(C(=O)NC5COC5)cc4)cc23)ccc1OC1CCN(C(=O)CO)CC1` [Example 163, 4-(4-(3-Cyano-4-((1-(2-hydroxyacetyl)piperidin-4-yl)oxy)phenyl)-7H-pyrrolo[2,3-d]pyrimidin-6-yl)-N-(oxetan-3-yl)benzamide], the IC50 on IKKε is 1.8 nM; at TBK1, 1.78 nM.
The corresponding values for `Cc1cc(N2CCOCC2)ccc1-c1cc2c(-c3ccc(OC4CCOCC4)c(C#N)c3)ccnc2[nH]1` [Example 124, 5-(2-(2-methyl-4-morpholinophenyl)-1H-pyrrolo[2,3-b]pyridin-4-yl)-2-((tetrahydro-2H-pyran-4-yl)oxy)benzonitrile] are 18.6 nM and 5.9 nM.
Turning to `N#Cc1cc(-c2ccnc3[nH]c(-c4ccc5[nH]ccc5c4)cc23)ccc1OC1CCOCC1` [Example 45, 5-(2-(1H-indol-5-yl)-1H-pyrrolo[2,3-b]pyridin-4-yl)-2-((tetrahydro-2H-pyran-4-yl)oxy)benzonitrile], the half-maximal inhibitory concentration (IC50) was found to be 32.2 nM on IKKε and 32 nM on TBK1.
The corresponding values for `N#Cc1cc(-c2c(F)cnc3[nH]c(-c4ccc(N5CCOCC5)cc4)cc23)ccc1OC1CCOCC1` [Example 47, 5-(5-fluoro-2-(4-morpholinophenyl)-1H-pyrrolo[2,3-b]pyridin-4-yl)-2-((tetrahydro-2H-pyran-4-yl)oxy)benzonitrile] are 17.5 nM and 4.05 nM.
With `N#Cc1cc(-c2ncnc3[nH]c(-c4ccc(C5CCN(CC(F)(F)F)CC5)cc4)nc23)ccc1OC1CCN(C=O)CC1` [Example 259, 2-((1-formylpiperidin-4-yl)oxy)-5-(8-(4-(1-(2,2,2-trifluoroethyl)piperidin-4-yl)phenyl)-9H-purin-6-yl)benzonitrile], the IC50 stood at 45.5 nM at IKKε and 12.2 nM at TBK1.
